This passage reports remaining activity results from patent US20240425483A1, “INDOLINES AS PROTAC COMPOUNDS” (NeoPhore Limited, priority 2021, published 2024).

Where only a bound is given, the exact number is not on record here.

The remaining activity is the activity still measured, relative to the control.

The first test addresses T1, PMS2 protein (Homo sapiens, UniProt P54278).
T1 construct: host or cells: SW620 human colorectal carcinoma cells
T1 sequence (P54278 1-862): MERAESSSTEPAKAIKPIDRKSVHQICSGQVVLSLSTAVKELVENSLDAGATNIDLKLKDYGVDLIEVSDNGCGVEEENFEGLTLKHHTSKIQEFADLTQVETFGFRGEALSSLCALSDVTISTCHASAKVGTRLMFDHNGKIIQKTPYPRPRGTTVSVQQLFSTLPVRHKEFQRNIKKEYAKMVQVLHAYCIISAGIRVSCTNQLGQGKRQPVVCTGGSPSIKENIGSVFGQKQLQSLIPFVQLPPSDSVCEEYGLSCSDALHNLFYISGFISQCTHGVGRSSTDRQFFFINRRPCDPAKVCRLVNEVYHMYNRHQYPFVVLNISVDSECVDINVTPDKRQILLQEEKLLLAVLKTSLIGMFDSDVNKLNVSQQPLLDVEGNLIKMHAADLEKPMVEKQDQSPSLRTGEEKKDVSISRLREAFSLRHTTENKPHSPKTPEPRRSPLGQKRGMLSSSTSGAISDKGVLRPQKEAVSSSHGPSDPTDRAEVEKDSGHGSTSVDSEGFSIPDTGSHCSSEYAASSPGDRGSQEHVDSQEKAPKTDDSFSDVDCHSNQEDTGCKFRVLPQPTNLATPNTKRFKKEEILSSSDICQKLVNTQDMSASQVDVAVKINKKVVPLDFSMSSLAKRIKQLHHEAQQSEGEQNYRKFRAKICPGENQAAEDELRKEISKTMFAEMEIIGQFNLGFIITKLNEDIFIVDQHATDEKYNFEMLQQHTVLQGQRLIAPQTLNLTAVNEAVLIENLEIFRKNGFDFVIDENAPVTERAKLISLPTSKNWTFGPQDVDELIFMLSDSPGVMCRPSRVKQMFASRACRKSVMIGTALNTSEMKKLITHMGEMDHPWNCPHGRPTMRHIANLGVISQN
Description: PROTAC screening in SW620 human colorectal carcinoma cells, PMS2 protein level by JESS Western blot. Type of test: cell-based. The following applies: SW-620, 24 h, 1 uM compound, normalised to actin and DMSO control, Table A1. The protocol:
PROTAC Screening Protocol Using SW620 Human Colorectal Carcinoma Cells
SVW620 cells (ATCC/[…]) were cultured in T75 Falcon flasks in culture media (F12/DMEM 1:1 media, 10% FCS, +L-G supplement). Cells were split twice a week, for a maximum of 6 weeks. Media was aspirated, and cells washed with 10 mL of sterile PBS. PBS was aspirated, and cells incubated with 1.5 mL TrypLE for up to 5 minutes at 37° C., 5% CO2. Once cells had detached, TrypLE was neutralised with 10 mL culture media and cells mixed 1:1 with Trypan blue and quantified using a Luna cell counter. Cells were then seeded into fresh T75 flasks with 1×10^6 cells and 10 mL culture media.
SW620 cells, cultured and counted as above, were used to seed 12 well plates at a density of 1.5×10^5 cells/well and incubated overnight at 37° C., 5% CO2. Test compounds were solubilized in DMSO to a stock concentration of 10 mM and serially diluted in DMSO and media to their test concentration; the final concentration of DMSO was 0.1% (v/v). Each concentration was tested in triplicate. SW620 cells were incubated with test compound for 24 hours at 37° C., 5% CO2. Media was aspirated from each well, and each well washed with 1 mL ice cold PBS. PBS was then aspirated, and 50 μL of cold lysis buffer (RIPA buffer supplemented with 1× protease inhibitors, Benzonase, MgCl) was added to each well; plates were then incubated on ice for 5 minutes. Cells were scraped using a pipette tip before being transferred to a fresh Eppendorf. Samples were spun at maximum speed in a benchtop centrifuge for 5 minutes at 4° C. and supernatant was then transferred to fresh tubes. Samples were stored at −80° C. until analysis.
Bicinchonininic acid (BCA) protein assay standards (2-0.125 mg/mL BSA) were prepared in advance. 6 μL of each standard was pipetted in duplicate into rows A and B of a 384-well assay plate. Test samples were diluted in lysis buffer (1:3-1:10) in a 384-well plate in duplicate. BCA Reagents were combined 50:1, Part A:Part B and 50 μL added to each well. Plates were incubated for 30 min at 37° C. in a plate incubator and read using a BCA protein 384 protocol on an EnSpire plate reader. Protein concentrations were calculated from a standard curve.
JESS Western Blot Protocol
Protein lysates were prepared using Protein Simple EZ standard pack reagents: 40 μL distilled H2O was added to a DTT tube (clear) and treated with 20 μL 10× sample buffer and 20 μL DTT to 5×MM tube (pink). 20 μL dH2O was added to biotinylated ladder tube (green).
Test samples were prepared by dilution to the required concentration (0.1 mg/mL) in 0.1× sample buffer. 1.25 μL 5× fluorescent master mix from the EZ standard pack was added to 5 μL sample for each lane to be loaded (e.g. 2.5 μL+10 μL if loading same sample into 2 wells). Samples were vortexed, briefly spun down and heated at 95° C. for 5 min in a PCR machine then vortexed again and briefly spun down before loading onto JESS cassettes (catalogue No: SM-W004) according to manufacturer's instructions (https://www.proteinsimple.com/technical_library.html?product=simplewestern&def_list=list). Protein expression was determined by the peak area of the target protein signal. Peak area of the target protein was normalised to peak area of the loading control (actin) and to DMSO control.
For orientation: A western blot detects proteins with antibodies after separation by electrophoresis.
In the case of `Cc1c(O)cc(O)c(C(=O)N2Cc3ccc(CN4CCN(CCOCCOCCOCCNc5cccc6c5C(=O)N(C5CCC(=O)NC5=O)C6=O)CC4)cc3C2)c1OCc1ccccc1` (centres unmarked) [Example 1, 4-((2-(2-(2-(2-(4-((2-(2-(Benzyloxy)-4,6-dihydroxy-3-methylbenzoyl)isoindolin-5-yl)methyl)piperazin-1-yl)ethoxy)ethoxy)ethoxy)ethyl)amino)-2-(2,6-dioxopiperidin-3-yl)isoindoline-1,3-dione], the remaining activity at 1 µM lay within 10 to 25%.

Take `Cc1c(O)cc(O)c(C(=O)N2Cc3ccc(CN4CCN(CCOCCOCCNc5cccc6c5C(=O)N(C5CCC(=O)NC5=O)C6=O)CC4)cc3C2)c1OCc1ccccc1` (centres unmarked) [Example 2, 4-((2-(2-(2-(4-((2-(2-(Benzyloxy)-4,6-dihydroxy-3-methylbenzoyl)isoindolin-5-yl)methyl)piperazin-1-yl)ethoxy)ethoxy)ethyl)amino)-2-(2,6-dioxopiperidin-3-yl)isoindoline-1,3-dione]: the remaining activity at 1 µM was in the range of 25 to 50%.

Molecule `Cc1c(O)cc(O)c(C(=O)N2Cc3ccc(CN4CCN(CCOCCOCCOCCOCCNc5cccc6c5C(=O)N(C5CCC(=O)NC5=O)C6=O)CC4)cc3C2)c1OCc1ccccc1` (centres unmarked) [Example 3, 4-((14-(4-((2-(2-(Benzyloxy)-4,6-dihydroxy-3-methylbenzoyl)isoindolin-5-yl)methyl)piperazin-1-yl)-3,6,9,12-tetraoxatetradecyl)amino)-2-(2,6-dioxopiperidin-3-yl)isoindoline-1,3-dione] showed a remaining activity at 1 µM of 10 to 25%.

With `Cc1c(O)cc(O)c(C(=O)N2Cc3ccc(CN4CCN(CCOCCOCCOCCOCCOCCNc5cccc6c5C(=O)N(C5CCC(=O)NC5=O)C6=O)CC4)cc3C2)c1OCc1ccccc1` (centres unmarked) [Example 4, 4-((17-(4-((2-(2-(Benzyloxy)-4,6-dihydroxy-3-methylbenzoyl)isoindolin-5-yl)methyl)piperazin-1-yl)-3,6,9,12,15-pentaoxaheptadecyl)amino)-2-(2,6-dioxopiperidin-3-yl)isoindoline-1,3-dione], the remaining activity at 1 µM is under 10%.

Molecule `Cc1c(O)cc(O)c(C(=O)N2Cc3ccc(CN4CCN(CCOCCOCCOCCNc5cccc6c5C(=O)N(C5CCC(=O)NC5=O)C6=O)CC4)cc3C2)c1OCC1CCCCC1` (centres unmarked) [Example 5, 4-[2-[2-[2-[2-[4-[[2-[2-(Cyclohexylmethoxy)-4,6-dihydroxy-3-methyl-benzoyl]isoindolin-5-yl]methyl]piperazin-1-yl]ethoxy]ethoxy]ethoxy]ethylamino]-2-(2,6-dioxo-3-piperidyl)isoindoline-1,3-dione] yielded a remaining activity at 1 µM of 10 to 25%.

The molecule `Cc1c(O)cc(O)c(C(=O)N2Cc3ccc(CN4CCN(CCOCCOCCOCCOCCNc5cccc6c5C(=O)N(C5CCC(=O)NC5=O)C6=O)CC4)cc3C2)c1OCC1CCCCC1` (centres unmarked) [Example 6, 4-[2-[2-[2-[2-[2-[4-[[2-[2-(Cyclohexylmethoxy)-4,6-dihydroxy-3-methyl-benzoyl]isoindolin-5-yl]methyl]piperazin-1-yl]ethoxy]ethoxy]ethoxy]ethoxy]ethylamino]-2-(2,6-dioxo-3-piperidyl)isoindoline-1,3-dione] registered a remaining activity at 1 µM of under 10%.

In turn, `Cc1c(O)cc(O)c(C(=O)N2Cc3ccc(CN4CCN(CCOCCOCCOCCOCCOCCNc5cccc6c5C(=O)N(C5CCC(=O)NC5=O)C6=O)CC4)cc3C2)c1OCC1CCCCC1` (centres unmarked) [Example 7, 4-[2-[2-[2-[2-[2-[2-[4-[[2-[2-(Cyclohexylmethoxy)-4,6-dihydroxy-3-methyl-benzoyl]isoindolin-5-yl]methyl]piperazin-1-yl]ethoxy]ethoxy]ethoxy]ethoxy]ethoxy]ethylamino]-2-(2,6-dioxo-3-piperidyl)isoindoline-1,3-dione] showed a remaining activity at 1 µM of 10 to 25%.

`Cc1c(O)cc(O)c(C(=O)N2Cc3ccc(CN4CCN(CCOCCOCCOCCOCCOCCOCCNc5cccc6c5C(=O)N(C5CCC(=O)NC5=O)C6=O)CC4)cc3C2)c1OCC1CCCCC1` (centres unmarked) [Example 8, 4-[2-[2-[2-[2-[2-[2-[2-[4-[[2-[2-(Cyclohexylmethoxy)-4,6-dihydroxy-3-methyl-benzoyl]isoindolin-5-yl]methyl]piperazin-1-yl]ethoxy]ethoxy]ethoxy]ethoxy]ethoxy]ethoxy]ethylamino]-2-(2,6-dioxo-3-piperidyl)isoindoline-1,3-dione] displayed a remaining activity at 1 µM of 10 to 25%.

As for `Cc1c(O)cc(O)c(C(=O)N2Cc3ccc(CN4CCN(CCOCCOCCOCCOc5cccc6c5C(=O)N(C5CCC(=O)NC5=O)C6=O)CC4)cc3C2)c1OCc1ccccc1` (centres unmarked) [Example 9, 4-(2-(2-(2-(2-(4-((2-(2-(Benzyloxy)-4,6-dihydroxy-3-methylbenzoyl)isoindolin-5-yl)methyl)piperazin-1-yl)ethoxy)ethoxy)ethoxy)ethoxy)-2-(2,6-dioxopiperidin-3-yl)isoindoline-1,3-dione], the remaining activity at 1 µM was 10 to 25%.

Take `Cc1c(O)cc(O)c(C(=O)N2Cc3ccc(CN4CCN(CCOCCOCCOc5cccc6c5C(=O)N(C5CCC(=O)NC5=O)C6=O)CC4)cc3C2)c1OCc1ccccc1` (centres unmarked) [Example 10, 4-(2-(2-(2-(4-((2-(2-(Benzyloxy)-4,6-dihydroxy-3-methylbenzoyl)isoindolin-5-yl)methyl)piperazin-1-yl)ethoxy)ethoxy)ethoxy)-2-(2,6-dioxopiperidin-3-yl)isoindoline-1,3-dione]: the remaining activity at 1 µM fell in the range of 25 to 50%.

Take `Cc1c(O)cc(O)c(C(=O)N2Cc3ccc(CN4CCN(CCOCCOCCOCCOCCOc5cccc6c5C(=O)N(C5CCC(=O)NC5=O)C6=O)CC4)cc3C2)c1OCc1ccccc1` (centres unmarked) [Example 11, 4-((14-(4-((2-(2-(Benzyloxy)-4,6-dihydroxy-3-methylbenzoyl)isoindolin-5-yl)methyl)piperazin-1-yl)-3,6,9,12-tetraoxatetradecyl)oxy)-2-(2,6-dioxopiperidin-3-yl)isoindoline-1,3-dione]: the remaining activity at 1 µM was in the range of 10 to 25%.

`Cc1c(O)cc(O)c(C(=O)N2Cc3ccc(CN4CCN(CCOCCOCCOCCOCCOCCOc5cccc6c5C(=O)N(C5CCC(=O)NC5=O)C6=O)CC4)cc3C2)c1OCc1ccccc1` (centres unmarked) [Example 12, 4-((17-(4-((2-(2-(Benzyloxy)-4,6-dihydroxy-3-methylbenzoyl)isoindolin-5-yl)methyl)piperazin-1-yl)-3,6,9,12,15-pentaoxaheptadecyl)oxy)-2-(2,6-dioxopiperidin-3-yl)isoindoline-1,3-dione]: the remaining activity at 1 µM fell in the range of 10 to 25%.

The same test, now with this note: SW-620, 24 h, 1 uM compound, upon further testing, Table A2.
As to `Cc1c(O)cc(O)c(C(=O)N2Cc3ccc(CN4CCN(CCOCCOCCNc5cccc6c5C(=O)N(C5CCC(=O)NC5=O)C6=O)CC4)cc3C2)c1OCc1ccccc1` (centres unmarked) [Example 2, 4-((2-(2-(2-(4-((2-(2-(Benzyloxy)-4,6-dihydroxy-3-methylbenzoyl)isoindolin-5-yl)methyl)piperazin-1-yl)ethoxy)ethoxy)ethyl)amino)-2-(2,6-dioxopiperidin-3-yl)isoindoline-1,3-dione], the remaining activity at 1 µM fell in the range of 10 to 25%.

Molecule `Cc1c(O)cc(O)c(C(=O)N2Cc3ccc(CN4CCN(CCOCCOCCOCCOCCOCCOc5cccc6c5C(=O)N(C5CCC(=O)NC5=O)C6=O)CC4)cc3C2)c1OCc1ccccc1` (centres unmarked) [Example 12, 4-((17-(4-((2-(2-(Benzyloxy)-4,6-dihydroxy-3-methylbenzoyl)isoindolin-5-yl)methyl)piperazin-1-yl)-3,6,9,12,15-pentaoxaheptadecyl)oxy)-2-(2,6-dioxopiperidin-3-yl)isoindoline-1,3-dione] showed a remaining activity at 1 µM of under 10%.
